Measured values as given in the supplement of paper PMC10307832.

How the values were obtained:
Experiment in all cases: relative viability (nuclei count vs DMSO), 5 days (fraction); higher = more cells survive
Erlotinib + Lapatinib = compound: C#Cc1cccc(Nc2ncnc3cc(OCCOC)c(OCCOC)cc23)c1 [Erlotinib] + CS(=O)(=O)CCNCc1ccc(-c2ccc3ncnc(Nc4ccc(OCc5cccc(F)c5)c(Cl)c4)c3c2)o1 [Lapatinib] (partner 2 µM)
Procedure, shortened: (§1)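 Lung cancer cell lines were seeded in 1536-well plates and dosed by pin tool the next day, with either a single drug or a fixed anchor-drug dose combined with five library-drug doses (not always all listed) spaced in √10 steps. Five days later, one step fixed the cells and stained their nuclei (final 0.05% Triton X-100, 1% formaldehyde, 1 ug/ml Hoechst), and nuclei were counted on 4× images. Relative viability is the nuclei count in treated wells divided by the count in vehicle wells, and each value is the median of duplicate plates.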

AT9283 + Luminespib = compound: O=C(Nc1c[nH]nc1-c1nc2ccc(CN3CCOCC3)cc2[nH]1)NC1CC1 [AT9283] + CCNC(=O)c1noc(-c2cc(C(C)C)c(O)cc2O)c1-c1ccc(CN2CCOCC2)cc1 [Luminespib] (partner 0.01 µM)
Procedure, shortened: as §1

Erlotinib + Linsitinib = compound: C#Cc1cccc(Nc2ncnc3cc(OCCOC)c(OCCOC)cc23)c1 [Erlotinib] + C[C@]1(O)C[C@@H](c2nc(-c3ccc4ccc(-c5ccccc5)nc4c3)c3c(N)nccn32)C1 [Linsitinib] (partner 1 µM)
Procedure, shortened: as §1

AT9283 + Bortezomib = compound: O=C(Nc1c[nH]nc1-c1nc2ccc(CN3CCOCC3)cc2[nH]1)NC1CC1 [AT9283] + CC(C)C[C@H](NC(=O)[C@H](Cc1ccccc1)NC(=O)c1cnccn1)B(O)O [Bortezomib] (partner 0.002 µM)
Procedure, shortened: as §1

Erlotinib + Pictilisib = compound: C#Cc1cccc(Nc2ncnc3cc(OCCOC)c(OCCOC)cc23)c1 [Erlotinib] + CS(=O)(=O)N1CCN(Cc2cc3nc(-c4cccc5[nH]ncc45)nc(N4CCOCC4)c3s2)CC1 [Pictilisib] (partner 1 µM)
Procedure, shortened: as §1

Cell Line | relative viability (Erlotinib + Lapatinib; first compound 0.02 µM) | relative viability (Erlotinib + Lapatinib; first compound 0.2 µM) | relative viability (Erlotinib + Lapatinib; first compound 2 µM) | relative viability (AT9283 + Luminespib; first compound 0.003 µM) | relative viability (AT9283 + Luminespib; first compound 0.03 µM) | relative viability (AT9283 + Luminespib; first compound 0.09487 µM) | relative viability (AT9283 + Luminespib; first compound 0.3 µM) | relative viability (Erlotinib + Linsitinib; first compound 0.02 µM) | relative viability (Erlotinib + Linsitinib; first compound 0.2 µM) | relative viability (Erlotinib + Linsitinib; first compound 0.6325 µM) | relative viability (Erlotinib + Linsitinib; first compound 2 µM) | relative viability (AT9283 + Bortezomib; first compound 0.003 µM) | relative viability (AT9283 + Bortezomib; first compound 0.03 µM) | relative viability (AT9283 + Bortezomib; first compound 0.09487 µM) | relative viability (AT9283 + Bortezomib; first compound 0.3 µM) | relative viability (Erlotinib + Pictilisib; first compound 0.02 µM) | relative viability (Erlotinib + Pictilisib; first compound 0.6325 µM) | relative viability (Erlotinib + Pictilisib; first compound 2 µM) | relative viability (Erlotinib + Lapatinib; first compound 0.6325 µM) | relative viability (Erlotinib + Pictilisib; first compound 0.2 µM)
NCI-H661 | 0.493 | 0.41 | 0.473 | 0.916 | 0.399 | 0.304 | 0.313 | 0.731 | 0.432 | 0.663 | 0.493 | 0.779 | 0.531 | 0.338 | 0.346 | 0.333 | 0.416 | 0.294 | – | –
NCI-H727 | 0.821 | 0.873 | 0.766 | 0.253 | 0.257 | 0.261 | 0.281 | 0.284 | 0.349 | 0.282 | 0.232 | 0.824 | 0.508 | 0.351 | 0.306 | 0.456 | 0.346 | 0.339 | 0.929 | 0.344
NCI-H838 | 1.21 | 0.759 | 0.853 | 0.341 | 0.232 | 0.203 | 0.22 | 1.19 | 0.93 | 1.05 | 0.906 | 0.777 | 0.228 | 0.184 | 0.231 | 0.471 | 0.503 | 0.477 | 1.26 | 0.454
NCI-H1355 | 1.03 | 0.98 | 0.998 | 0.6 | 0.702 | 0.375 | 0.239 | 0.921 | 0.815 | 0.723 | 0.559 | 1.15 | 1.13 | 1.23 | 0.287 | 0.499 | 0.407 | 0.312 | 1.06 | 0.392
NCI-H1437 | 0.788 | 0.812 | 0.726 | 1.26 | 1.12 | 0.681 | 0.344 | 1.05 | 0.941 | 0.83 | 0.526 | 0.496 | 0.398 | 0.175 | 0.164 | 0.431 | 0.482 | 0.347 | 1 | 0.408
NCI-H1563 | 0.877 | 0.851 | 0.879 | 0.5 | 0.527 | 0.443 | 0.45 | 1.2 | 1.23 | 1.2 | 1.15 | 0.859 | 0.79 | 0.822 | 0.703 | 0.63 | 0.679 | 0.636 | 0.843 | 0.706
NCI-H1651 | 0.906 | 0.693 | 0.768 | 0.725 | 0.826 | 0.773 | 0.623 | 0.967 | 0.996 | 1.07 | 0.842 | 0.914 | 0.897 | 0.902 | 0.618 | 0.511 | 0.662 | 0.5 | 1.02 | 0.628
NCI-H1666 | 0.714 | 0.552 | 0.699 | 1.03 | 0.726 | 0.557 | 0.499 | 0.82 | 0.696 | 0.62 | 0.496 | 0.806 | 0.442 | 0.297 | 0.298 | 0.466 | 0.317 | 0.267 | 0.698 | 0.329
NCI-H1734 | 1.15 | 1.02 | 1 | 0.221 | 0.145 | 0.165 | 0.18 | 0.946 | 0.849 | 0.966 | 0.776 | 0.904 | 0.349 | 0.296 | 0.223 | 0.494 | 0.542 | – | 1.3 | 0.474
NCI-H1755 | – | 1.06 | 1.02 | 0.607 | 0.446 | 0.553 | 0.407 | 1.05 | – | 0.955 | 0.976 | 0.983 | 0.91 | 0.498 | 0.529 | 0.422 | 0.416 | 0.374 | 1.09 | 0.456
NCI-H1792 | – | 0.877 | 0.842 | 0.264 | 0.454 | 0.382 | 0.229 | 0.466 | 0.405 | 0.525 | 0.432 | 0.918 | 0.985 | 0.961 | 0.701 | 0.305 | 0.269 | 0.21 | 1.18 | 0.183
NCI-H1915 | 1.01 | 0.987 | 0.992 | 0.729 | 0.751 | 0.187 | 0.213 | 1.15 | 1.17 | 1.1 | 1.08 | 0.769 | 0.952 | 0.887 | 0.341 | – | 1.07 | 0.948 | – | –
NCI-H1975 | – | 0.885 | – | 0.198 | 0.243 | 0.215 | 0.132 | 0.954 | 0.974 | 0.991 | – | 0.388 | 0.264 | 0.173 | 0.179 | 0.287 | 0.307 | 0.255 | 0.908 | 0.253
NCI-H1993 | 0.961 | 0.795 | 0.827 | 0.977 | 0.521 | 0.523 | 0.45 | 0.763 | – | 0.728 | 0.85 | 1.31 | 0.997 | 0.576 | 0.504 | 0.807 | 0.946 | 0.901 | 0.698 | 0.745
NCI-H2009 | 0.971 | 1.03 | 0.889 | 1.04 | 0.978 | 0.736 | 0.325 | 1.26 | 1.15 | 1.2 | 1.22 | 1.01 | 0.639 | 0.363 | 0.233 | 0.836 | 0.943 | 0.732 | 1.07 | 0.763
NCI-H2023 | 0.737 | 0.651 | – | 0.954 | 0.742 | 0.361 | 0.11 | 0.721 | 0.574 | 0.428 | 0.496 | 1 | 0.918 | 0.174 | 0.123 | 0.3 | 0.218 | 0.226 | 0.965 | –
